Experiment: Stability study on nanogel composition of Example 1 (storage at 40° C. and 75% relative humidity)
Format: physicochemical
Conditions: for % Drug in the formulation, 1 Month / % Drug in the formulation, 2 Month / % Drug in the formulation, 3 Month: 40° C. and 75% relative humidity; for % Drug in the formulation, 2 Month: 2 months; for % Drug in the formulation, 3 Month: 3 months
From the text: Stability Study on Nanogel Composition of Example 1

[1] = nanogel Formulation 1 of Example 1
[2] = nanogel Formulation 2 of Example 1

Compound	% Drug in the formulation, 1 Month [1] [%]	% Drug in the formulation, 2 Month [1] [%]	% Drug in the formulation, 3 Month [1] [%]	% Drug in the formulation, Initial [1] [%]	% Drug in the formulation, 1 Month [2] [%]	% Drug in the formulation, 2 Month [2] [%]	% Drug in the formulation, 3 Month [2] [%]	% Drug in the formulation, Initial [2] [%]
CCc1cccc2c3c([nH]c12)C(CC)(CC(=O)O)OCC3 (racemic) [Etodolac, (RS)-2-(1,8-Diethyl-4,9-dihydro-3H-pyrano[3,4-b]indol-1-yl)acetic acid]	99.5	97.7	95.9	101.6	97.6	103.0	102.3	100.4
COC(=O)c1ccccc1O [Methyl salicylate]	100.9	95.2	93.2	97.3	101.2	97.7	97.2	100.2

Reference: US20130295145A1, “TOPICAL PHARMACEUTICAL COMPOSITIONS COMPRISING ETODOLAC” (CADILA HEALTHCARE LIMITED, priority 2010, published 2013)
